Data reported in the supplement of paper PMC11208160.

assay: recombinant barcode read abundance after kanamycin selection (control-corrected) (log10(CPM+1)); higher = more efficient recombination; sequences stand for … in AGTGCAGAGAAAATCGGCCAGTTTTCTCTGCCTGCAGTCCGCATGCCGT…AGATTTATGCAGCGGACTGCCTTTCTCCCAAAGTGATAAACCGGACAGTATCATGGACCGGTTTTCCCGGTAATCCGTATTTGCAAGGTTGGTTTCACT; site = the 11-nt target
Method in brief: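 Values are log10(CPM+1) from a pooled E. coli screen of targets paired with IS621 bridge RNA target-binding loops. Recombination efficiency here means counts per million of recombinant-junction barcodes, averaged and control-corrected. Plates were chloramphenicol/ampicillin LB agar for the control and chloramphenicol/ampicillin/kanamycin with 0.1 mM IPTG, two replicates each.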
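Further: IS621 recombinase and bridge RNA in Escherichia coli cells.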

Point of comparison: “GCCACGCCTTGGGTTCTAACCTGTTGCAG (site GCCCCGCCTCT)”, “recombinant barcode read abundance (log10)” value 0.0522. Against it:
- CTACAGACTTGGGTTCTAACCTGTTGCGT (site CTACAGACTTC) — within 0.2 log units, 0.238
- CTACGTTCTTGGGTTCTAACCTGTTGCAC (site CTACGGTCTGT) — within 0.2 log units, 0.0816
- TAGAGAGCTTGGGTTCTAACCTGTTGCAG (site TAGAGAGCTCT) — higher, 1.94
- AATGTGTCTTGGGTTCTAACCTGTTGCCT (site AAGGTGTCTAG) — higher, 1.01
- CTAATGTCTTGGGTTCTAACCTGTTGCCA (site CTAATGTCTAG) — higher, 0.622
- AGGGTCACTTGGGTTCTAACCTGTTGCCT (site AGGGTCACTAG) — higher, 2.23
- TCCTGTGCTTGGGTTCTAACCTGTTGCCT (site TCCTGTGCTAG) — higher, 0.254
- GGGGCCTCTTGGGTTCTAACCTGTTGCTT (site GGGGCCTCTAA) — higher, 2.59
- ACCTGTACTTGGGTTCTAACCTGTTGCCT (site ACCTGTACTAG) — within 0.2 log units, 0.183
- ATGAAGCCTTGGGTTCTAACCTGTTGCTT (site ATCAAGCCTAA) — within 0.2 log units, 0.0285
- GGTATGTCTTGGGTTCTAACCTGTTGCCT (site TGTATGTCTAG) — within 0.2 log units, 0.106
- GGGTAACCTTGGGTTCTAACCTGTTGCCT (site TGGTAACCTAG) — within 0.2 log units, 0.19
- TGCCTGCCTTGGGTTCTAACCTGTTGCCT (site TGCCTGCCTAG) — higher, 0.287
- ACATTAGCTTGGGTTCTAACCTGTTGCTG (site ACACTAGCTCA) — within 0.2 log units, 0.0561
- TCGGAGTCTTGGGTTCTAACCTGTTGCAT (site TCGGAGTCTAG) — higher, 1.4
- GTAAGTCCTTGGGTTCTAACCTGTTGCAG (site GTAAGTCCTCT) — higher, 1.97
- GCACTGCCTTGGGTTCTAACCTGTTGCCT (site GCACTGCCTAG) — higher, 1.31
- CAGAACACTTGGGTTCTAACCTGTTGCCT (site TAGAACACTAG) — within 0.2 log units, 0.171
- GTATCTACTTGGGTTCTAACCTGTTGCCT (site GTATCTACTAG) — within 0.2 log units, 0.069
- CAGAACACTTGGGTTCTAACCTGTTGCCT (site AAGAACACTAG) — within 0.2 log units, 0.0991
- TGAGAAGCTTGGGTTCTAACCTGTTGCCT (site TGACCAGCTAG) — higher, 0.299
- AGGTCCACTTGGGTTCTAACCTGTTGCTG (site AGGTCCACTCA) — higher, 1.31
- GGACGGCCTTGGGTTCTAACCTGTTGCCT (site GGACGGCCTAG) — higher, 1.35
- AGACCACCTTGGGTTCTAACCTGTTGCCT (site AGACCACCTAG) — higher, 1.82
- TATAAGACTTGGGTTCTAACCTGTTGCAC (site TAGAAGACTAT) — higher, 0.587
- CACCTGTCTTGGGTTCTAACCTGTTGCGG (site CACCTGTCTCC) — higher, 1.8
- TACGGGGCTTGGGTTCTAACCTGTTGCCT (site TACGGGGCTAG) — higher, 0.572
- TAGGGCACTTGGGTTCTAACCTGTTGCTA (site TAGGCGACTTA) — higher, 0.875
- ATGCACCCTTGGGTTCTAACCTGTTGCCT (site ATGCGCCCTAG) — higher, 0.977
- AGCTATGCTTGGGTTCTAACCTGTTGCCT (site GAAATACCTCC) — within 0.2 log units, 0.138
- CATTTAGCTTGGGTTCTAACCTGTTGCGG (site AGGGCGCCTAA) — within 0.2 log units, 0.0282
- AACTATCCTTGGGTTCTAACCTGTTGCAT (site AACTGTCCTAT) — within 0.2 log units, 0.00638
- AAAGTACCTTGGGTTCTAACCTGTTGCCT (site AAAGTACCTAG) — higher, 2
- CGAATCACTTGGGTTCTAACCTGTTGCCT (site CGAATCTCTAG) — within 0.2 log units, 0.0867
- AGAGATGCTTGGGTTCTAACCTGTTGCAG (site AGAGATGCTCT) — higher, 1.8
- CTCTCGTCTTGGGTTCTAACCTGTTGCCT (site CTCTCGTCTAA) — within 0.2 log units, 0.11
- AATACCACTTGGGTTCTAACCTGTTGCCT (site AATCGCACTAG) — within 0.2 log units, 0.186
- CACATGGCTTGGGTTCTAACCTGTTGCCG (site CACATGGCTCG) — higher, 0.259
- TTCCGTCCTTGGGTTCTAACCTGTTGCTT (site CGAGTGACTTG) — within 0.2 log units, 0.0499
- TATAGCTCTTGGGTTCTAACCTGTTGCCT (site GATAGCTCTAG) — within 0.2 log units, 0.106
- TAGAACACTTGGGTTCTAACCTGTTGCTT (site TAGAACACTTA) — within 0.2 log units, 0.169
- TGCAATACTTGGGTTCTAACCTGTTGCAT (site TGCAATACTAT) — within 0.2 log units, 0.136
- GGGGCTTCTTGGGTTCTAACCTGTTGCCT (site GAGGCTTCTAG) — within 0.2 log units, 0.0126
- TATACTACTTGGGTTCTAACCTGTTGCTA (site TATAATACTTC) — higher, 0.511
- TCACTCTCTTGGGTTCTAACCTGTTGCCT (site TCACTCTCTAG) — higher, 1.22
- CGGCCGCCTTGGGTTCTAACCTGTTGCTT (site GGGTCGCCTAA) — within 0.2 log units, 0.0563
- AGGAACACTTGGGTTCTAACCTGTTGCTG (site AGGAACACTAA) — higher, 0.803
- TCGTTGCCTTGGGTTCTAACCTGTTGCCT (site TCGTTCCCTAA) — higher, 0.695
- GCGGCTCCTTGGGTTCTAACCTGTTGCAT (site GCGGCTCCTAT) — higher, 1.55
- CTACTAGCTTGGGTTCTAACCTGTTGCAT (site CTACTAGCTCT) — within 0.2 log units, 0.115
- GGTGCCTCTTGGGTTCTAACCTGTTGCAT (site GGTGCCTCTAT) — higher, 1.46
- GACACAGCTTGGGTTCTAACCTGTTGCCT (site GAGACAGCTAG) — within 0.2 log units, 0.118
- GGTGGGTCTTGGGTTCTAACCTGTTGCCT (site GGTGGGTCTAG) — higher, 1.29
- AGACATCCTTGGGTTCTAACCTGTTGCTT (site AGACATCCTAA) — higher, 0.948
- GACCAGCCTTGGGTTCTAACCTGTTGCCT (site GACCAGCCTAT) — higher, 0.359
- TTGCCGACTTGGGTTCTAACCTGTTGCCA (site TTGGCGACTTG) — within 0.2 log units, 0.0806
- TCACCTGCTTGGGTTCTAACCTGTTGCCT (site TCACCTGCTAG) — higher, 0.961
- ATAAGAGCTTGGGTTCTAACCTGTTGCCT (site ATAATAGCTAG) — within 0.2 log units, 0.179
- TGCTCCTCTTGGGTTCTAACCTGTTGCCT (site TGCTCCTCTAG) — higher, 0.274
- AGTAGGGCTTGGGTTCTAACCTGTTGCAG (site AGTAGGGCTCT) — higher, 2.65
- TAGAACACTTGGGTTCTAACCTGTTGCTC (site TAGAACACTTA) — within 0.2 log units, 0.0884
- AGGAAGACTTGGGTTCTAACCTGTTGCCA (site AGGGAGACTTG) — within 0.2 log units, 0.239
- CGGATTGCTTGGGTTCTAACCTGTTGCCT (site CGGATCGCTAG) — within 0.2 log units, 0.0723
- CCACCGCCTTGGGTTCTAACCTGTTGCCT (site ACACCGCCTAG) — within 0.2 log units, 0.0161
- GACAAACCTTGGGTTCTAACCTGTTGCCT (site GACAAACCTAG) — higher, 0.433
